From patent US9532956B2, “PH sensitive biodegradable polymeric particles for drug delivery” (Massachusetts Institute of Technology, priority 2009, dated 2017) come the findings set out here.

The data set deals with Red blood cells (RBCs). As to conditions: pH 7.4.

Protocol: The red blood cells (RBCs) were separated from the whole blood or anticoagulant solution by centrifuging the whole blood at 800 rcf for 15 min. The supernatant was discarded and the RBCs were washed thrice with phosphate buffered saline (PBS). The stock of RBCs was prepared by mixing three volumes of the centrifuged RBCs with 11 parts of the phosphate buffered saline (PBS) with pH adjusted to 7.4, 6.5, or 5.4, and 100 μL of this stock was used for 1 ml of the sample. RBCs were mixed with Triton X-100 (1%, w/v) (positive control); with phosphate buffered saline (PBS) with pH adjusted to 7.4, 6.5, or 5.4 (negative control); and respective concentrations of amines, PLH and protamine at different pH (7.4, 6.5, or 5.4). Samples were incubated at 37° C. for 24 h on a tube shaker. The samples were centrifuged at 800 rcf for 15 min to separate intact RBCs. The supernatant was collected and kept for 30 min at room temperature to oxidize hemoglobin (Hb) and then the absorbance of Oxy-Hb was measured spectrophotometrically at 540 nm. The relative hemolysis efficiency was calculated as the percentage of released hemoglobin by the samples to that by Triton X-100. The percent hemolysis was calculated using the equation of a straight line, y=mx+c, where % hemolysis (x)=[optical density (y)−negative control optical density (c)]/[(positive control optical density−negative control optical density)/100] […]

In the case of `N[C@@H](Cc1c[nH]cn1)C(=O)N[C@@H](Cc1c[nH]cn1)C(=O)N[C@@H](Cc1c[nH]cn1)C(=O)N[C@@H](Cc1c[nH]cn1)C(=O)N[C@@H](Cc1c[nH]cn1)C(=O)N[C@@H](Cc1c[nH]cn1)C(=O)O` [PLH, poly-L-histidine (PLH, 6-mer)], the “% hemolysis versus pH” value is “maximum hemolytic properties at endosomal pH 5.4”.

For the compound protamine, the “% hemolysis versus pH” value is recorded as “more hemolytic properties at physiological pH 7.4”.
